Results from the supplement of paper PMC13380429.

Legend:
Conditions in all cases: 72 h
Caco-2 [1] = experiment: cell viability relative to DMSO; higher = less toxic
Calu-3 [2] = experiment: as above
HepG2 [3] = experiment: as above
U2OS [4] = experiment: as above
Vero E6 [5] = experiment: as above
Caco-2 [6] = experiment: relative viability EC50 (midpoint between 100% and the lowest measured viability); higher = less toxic
Calu-3 [7] = experiment: as above
HepG2 [8] = experiment: as above
U2OS [9] = experiment: as above
Caco-2 [10] = experiment: drug sensitivity score (DSS) for viability; higher = more toxic; extreme values may be limits of the assay
Calu-3 [11] = experiment: as above
HepG2 [12] = experiment: as above
U2OS [13] = experiment: as above
Vero E6 [14] = experiment: as above
Vero E6 [15] = experiment: relative viability EC50 (midpoint between 100% and the lowest measured viability); higher = less toxic

| Compound | cell viability (Caco-2 [1]; 1 nM) | cell viability (Caco-2 [1]; 10 nM) | cell viability (Caco-2 [1]; 100 nM) | cell viability (Caco-2 [1]; 1000 nM) | cell viability (Caco-2 [1]; 10000 nM) | cell viability (Calu-3 [2]; 1 nM) | cell viability (Calu-3 [2]; 10 nM) | cell viability (Calu-3 [2]; 100 nM) | cell viability (Calu-3 [2]; 1000 nM) | cell viability (Calu-3 [2]; 10000 nM) | cell viability (HepG2 [3]; 1 nM) | cell viability (HepG2 [3]; 10 nM) | cell viability (HepG2 [3]; 100 nM) | cell viability (HepG2 [3]; 1000 nM) | cell viability (HepG2 [3]; 10000 nM) | cell viability (U2OS [4]; 1 nM) | cell viability (U2OS [4]; 10 nM) | cell viability (U2OS [4]; 100 nM) | cell viability (U2OS [4]; 1000 nM) | cell viability (U2OS [4]; 10000 nM) | cell viability (Vero E6 [5]; 1 nM) | cell viability (Vero E6 [5]; 10 nM) | cell viability (Vero E6 [5]; 100 nM) | cell viability (Vero E6 [5]; 1000 nM) | cell viability (Vero E6 [5]; 10000 nM) | relative viability EC50 (Caco-2 [6]) | relative viability EC50 (Calu-3 [7]) | relative viability EC50 (HepG2 [8]) | relative viability EC50 (U2OS [9]) | drug sensitivity score (Caco-2 [10]) | drug sensitivity score (Calu-3 [11]) | drug sensitivity score (HepG2 [12]) | drug sensitivity score (U2OS [13]) | drug sensitivity score (Vero E6 [14]) | relative viability EC50 (Vero E6 [15]) |
| --- | --- | --- | --- | --- | --- | --- | --- | --- | --- | --- | --- | --- | --- | --- | --- | --- | --- | --- | --- | --- | --- | --- | --- | --- | --- | --- | --- | --- | --- | --- | --- | --- | --- | --- | --- |
| CC(C)c1nc(N(C)S(C)(=O)=O)nc(-c2ccc(F)cc2)c1/C=C/[C@@H](O)C[C@@H](O)CC(=O)O [rosuvastatin] | 103% | 105% | 100% | 101% | 83.7% | 98.5% | 91.3% | 101% | 105% | 103% | 109% | 110% | 98.4% | 106% | 96.1% | 101% | 96.7% | 102% | 99.5% | 98% | 101% | 97.9% | 99.6% | 100% | 72.7% | > 10 µM | > 10 µM | > 10 µM | > 10 µM | 0.3 | 0 | 0 | 0 | 1.1 |  |
| Cc1ccc(C(=O)Nc2ccc(S(=O)(=O)O)c3cc(S(=O)(=O)O)cc(S(=O)(=O)O)c23)cc1NC(=O)c1cccc(NC(=O)Nc2cccc(C(=O)Nc3cc(C(=O)Nc4ccc(S(=O)(=O)O)c5cc(S(=O)(=O)O)cc(S(=O)(=O)O)c45)ccc3C)c2)c1 [suramin] | 93.5% | 94.5% | 99% | 90.9% | 97.5% | 96.3% | 101% | 94.8% | 103% | 111% | 97.4% | 109% | 102% | 103% | 91.8% | 99.9% | 94.7% | 99.4% | 96.7% | 100% |  |  |  |  |  | > 10 µM | > 10 µM | > 10 µM | > 10 µM | 0 | 0 | 0 | 0 |  |  |
| CC(=O)N1CCN(c2ccc(OC[C@@H]3CO[C@@](Cn4ccnc4)(c4ccc(Cl)cc4Cl)O3)cc2)CC1 (racemic) [ketoconazole] | 91.9% | 110% | 95.1% | 104% | 82.6% | 97.1% | 90.6% | 96.3% | 96.3% | 96.9% | 112% | 96.1% | 111% | 102% | 83.3% | 98.3% | 101% | 99.3% | 103% | 95.3% |  |  |  |  |  | > 10 µM | > 10 µM | > 10 µM | > 10 µM | 0.3 | 0 | 0.3 | 0 |  |  |
| CNC(=O)c1ccc(Nc2ncc(C(F)(F)F)c(NCc3nccnc3N(C)S(C)(=O)=O)n2)cc1 [defactinib] | 95.4% | 101% | 90.1% | 100% | 89.9% | 97.5% | 86.2% | 106% | 88.1% | 95.6% | 100% | 95.2% | 107% | 81.4% | 68.1% | 98.2% | 100% | 93.8% | 96.5% | 75% | 106% | 99.8% | 101% | 84.2% | 76% | > 10 µM | > 10 µM |  | > 10 µM | 0 | 0 | 3.6 | 1.5 | 2.6 | > 10 µM |
| CC(=O)O[C@]1(C(C)=O)CC[C@H]2[C@@H]3CCC4=CC(=O)CC[C@]4(C)[C@H]3CC[C@@]21C [hydroxyprogesterone-acetate] | 95.8% | 98.6% | 90.2% | 104% | 98.9% | 103% | 115% | 91.3% | 95.7% | 93.8% | 98.7% | 95.5% | 110% | 90.3% | 102% | 99.2% | 101% | 106% | 99.9% | 98.7% |  |  |  |  |  | > 10 µM | > 10 µM | > 10 µM | > 10 µM | 0 | 0 | 0 | 0 |  |  |
| Cc1ccccc1C(OCCN(C)C)c1ccccc1 (stereo unspecified) [orphenadrine] | 99.9% | 93.6% | 94.3% | 98.7% | 95.5% | 99.5% | 103% | 106% | 102% | 92.9% | 102% | 108% | 90.7% | 105% | 109% | 106% | 97.7% | 95.5% | 97.5% | 97.8% |  |  |  |  |  | > 10 µM | > 10 µM | > 10 µM | > 10 µM | 0 | 0 | 0 | 0 |  |  |
| COc1cc2ncnc(Nc3ccc(Oc4ccccc4)cc3)c2cc1OC [SRC-kinase-inhibitor-I] | 96.8% | 106% | 98% | 94.7% | 71.1% | 88.9% | 102% | 94% | 89.9% | 33.4% | 104% | 112% | 104% | 103% | 86.8% | 99.7% | 105% | 99.6% | 103% | 80.8% | 103% | 97.2% | 109% | 93.5% | 66.7% |  | 1.98 µM | > 10 µM | > 10 µM | 2.1 | 5.4 | 0.1 | 0.4 | 2.6 |  |
| O=C1c2ccccc2C(=O)C1c1ccccc1 [phenindione] | 88.5% | 89.3% | 99.4% | 94.1% | 101% | 108% | 85.4% | 100% | 95.2% | 106% | 89.4% | 110% | 93.7% | 98.5% | 101% | 105% | 97.9% | 103% | 99.3% | 102% |  |  |  |  |  | > 10 µM | > 10 µM | > 10 µM | > 10 µM | 0 | 0 | 0 | 0 |  |  |
